A short description of data set [1]: Table 1: tipranavir drug-drug interaction potential and routes of elimination of antiretrovirals. As to conditions: drug-drug interaction with tipranavir.
A short description of data set [2]: Study 1: pharmacokinetic drug-drug interaction of tipranavir 1350 mg BID and ritonavir 500 mg BID, plasma levels by HPLC. As to conditions: for CLPO / Cmin / Css: median (range). It is filed as in vivo, human. An excerpt: Twelve subjects were Caucasian and two were of African descent. Ten subjects completed all aspects of the study. Pharmacokinetic analyses were based on the results obtained in these subjects. […] Detection was by UV absorbance at 260 nm. […] Ritonavir and the internal standard (IS) were extracted from human plasma by liquid-liquid extraction with an ethyl acetate mixture.

Data set [3] can be described thus: Study 2: pharmacokinetic drug-drug interaction of tipranavir 600 or 900 mg BID and ritonavir 100-500 mg BID, plasma levels by HPLC. It is filed as in vivo, human. The following applies: for CLPO / Cmin / Css / AUC / Cmax / Tmax: median (range); for half-life / AUC / Cmax / Tmax: both sexes, human, plasma, oral; for half-life: harmonic mean (range), read-out: t½ (converted). The protocol: Both groups received their assigned dose of tipranavir continuously throughout the study period. […] The pharmacokinetics of tipranavir when coadministered with ritonavir were evaluated and compared with baseline data, while the ritonavir data were compared to historical data. The study was conducted in 19 healthy volunteers (16 males and 3 females) with a mean age of 30 years (range, 19-52 years), height of 177.1 cm (range, 162.6-190.5 cm), and weight of 76.7 kg (range, 57.3-95.0 kg). Eighteen subjects were Caucasian […]. […] Pharmacokinetic analyses were based on those subjects completing the baseline evaluation and at least one period of concomitant drug administration. […] Detection was by UV absorbance at 260 nm. […] Ritonavir and the internal standard (IS) were extracted from human plasma by liquid-liquid extraction with an ethyl acetate mixture.

A short description of data set [4]: Example 4: pharmacokinetic drug-drug interaction of tipranavir SEDDS 1250 mg BID and ritonavir oral solution 200 mg BID. It is filed as in vivo, human.
Where [5] appears, read: Ritonavir 500 mg BID + Tipranavir 1350 mg BID, n=10.
Setting [6] is: Ritonavir 500 mg BID alone, steady state, n=10.
[7] abbreviates: ritonavir 500 mg BID + tipranavir 1350 mg BID vs ritonavir alone.
Setting [8] is: Ritonavir 500 mg BID + Tipranavir 600 mg BID, N=7.
Where [9] appears, read: Ritonavir 500 mg BID + Tipranavir 900 mg BID, N=6.
Where [10] appears, read: ritonavir 500 mg BID + tipranavir 600 or 900 mg BID vs ritonavir alone.
Setting [11] is: Ritonavir Oral Solution 200mg BID + Tipranavir SEDDS SEC 1250mg BID, median (range), N=21.
The mark [12] stands for this setting: ritonavir 200 mg BID + tipranavir 1250 mg BID vs 500-mg twice-daily ritonavir alone.

Each structure is given as a SMILES string. Marks after values point to notes of the source that are not given here.

Take `CC(C)CN(C[C@@H](O)[C@H](Cc1ccccc1)NC(=O)O[C@H]1CCOC1)S(=O)(=O)c1ccc(N)cc1` [Amprenavir]: in data set [1], the “Potential for Clinically Significant Interaction” value is recorded as “High (and unfavorable)”.

For `C[C@H](Sc1nc(N)cc(Cl)n1)c1cc2ccoc2cn1` [PNU-142721], the “Potential for Clinically Significant Interaction” value in data set [1] is given as “Uncertain”.

For the molecule `O=C1Nc2ccc(Cl)cc2[C@@](C#CC2CC2)(C(F)(F)F)O1` [Efavirenz], the “Potential for Clinically Significant Interaction” value in data set [1] is reported as “Uncertain (Efavirenz is a possible CYP3A inducer)”.

Consider `Cc1cn([C@H]2C[C@H](N=[N+]=[N-])[C@@H](CO)O2)c(=O)[nH]c1=O` [AZT, zidovudine], for which, in data set [1], the “Potential for Clinically Significant Interaction” value was “Low”.

`Cc1c(O)cccc1C(=O)N[C@@H](CSc1ccccc1)[C@H](O)CN1C[C@H]2CCCC[C@H]2C[C@H]1C(=O)NC(C)(C)C` [Nelfinavir]: the “Potential for Clinically Significant Interaction” value in data set [1] is given as “High (and unfavorable)”.

For `O=c1[nH]cnc2c1ncn2[C@H]1CC[C@@H](CO)O1` [ddI], the “Potential for Clinically Significant Interaction” value in data set [1] is given as “Low”.

For `Nc1nc(NC2CC2)c2ncn([C@H]3C=C[C@@H](CO)C3)c2n1` [Abacavir], the “Potential for Clinically Significant Interaction” value in data set [1] was “Low”.

Take `CC(C)c1nc(CN(C)C(=O)N[C@H](C(=O)N[C@@H](Cc2ccccc2)C[C@H](O)[C@H](Cc2ccccc2)NC(=O)OCc2cncs2)C(C)C)cs1` [Ritonavir, (2S,3S,5S)-5(N-(N-((N-Methyl-N-((2-isopropyl-4-thiazoly)methyl)amino)carbonyl)-L-valinyl)amino)-2-(N-((5-thiazoly)methoxycarbonyl)amino)-1,6-diphenyl-3-hydroxhexane, reference compound]: in data set [2] (setting [5]), the CLPO is listed as 26 (17-61) L/h, the Cmin is 0.10 (0.04-0.29) µg/mL and the Css is listed as 1.6 (0.69-2.50) µg/mL. The t½ in data set [2] (Ritonavir 500 mg BID alone, harmonic mean (range), n=10) is given as 2.9 (2.6-4.4) h. For the same molecule, in data set [2] (setting [6]), the CLPO is given as 5.1 (3.9-7.8) L/h, the Cmin was 1.9 (1.0-3.9) µg/mL and the Css is reported as 8.4 (5.3-10.7) µg/mL. In addition, the half-life in data set [2] (both sexes, human, plasma, oral, 500 mg, read-out: t½ (converted)) is 2.9 h. In data set [2] (setting [7]), the “decrease in mean steady-state ritonavir concentrations” value was around 5 fold; the “decrease of median ritonavir Cmax value” was determined as 3.8 fold; the “median ritonavir Cmin concentration, fold lower” value is “more than 10 fold”. In addition, in data set [3] (setting [8]), the CLPO is recorded as 19 (11-31) L/h, the Cmin is 0.15 (0.08-0.53) µg/mL, the Css is 2.3 (1.4-3.7) µg/mL and the half-life was 1.8 h. In addition, in data set [3] (setting [8]), the area under the curve (AUC) (in general, the area under the concentration-time curve, a measure of exposure) amounted to 27000 ng·h/mL; the Cmax (usually the peak of the concentration-time curve) turned out to be 7000 ng/mL; the Tmax – broadly, the time from dosing to the highest level – worked out at 3 h. Besides, in data set [3] (setting [9]), the CLPO is on record as 19 (12-27) L/h, the Cmin is given as 0.15 (0.09-0.62) µg/mL, the Css is 1.9 (1.6-3.4) µg/mL and the half-life is 1.8 h. For the same molecule, in data set [3] (setting [9]), the AUC worked out at 26000 ng·h/mL, the Cmax came to 5800 ng/mL and the Tmax worked out at 3 h. In data set [3] (setting [10]), the “decrease in steady-state plasma ritonavir concentrations” value is on record as around 4 fold; the “median ritonavir Cmax values, fold lower” value is given as “more than 2 fold”; the “median ritonavir Cmin values, fold lower” value was “more than 10 fold”. Also, in data set [4] (setting [11]), the CLPO is given as 25.1 (8.4-73.1)* L/h, the Cmin is listed as 0.035 (0.000-0.341)* µg/mL and the Css is recorded as 0.67 (0.23-1.99)* µg/mL. Besides, the “apparent elimination half-life of ritonavir relative to ritonavir given alone” value in data set [4] (ritonavir 200 mg BID + tipranavir 1250 mg BID) was “decreased”. Moreover, in data set [4] (setting [12]), the “median ritonavir AUC, fold lower” value was 12 fold; the “median ritonavir Cmax, fold lower” value was 10 fold; the “median ritonavir Cmin, fold lower” value is on record as 54 fold. Besides, the “Potential for Clinically Significant Interaction” value in data set [1] is on record as “High (possibly favorable) (Ritonavir increases trough tipranavir concentrations; tipranavir expected to reduce ritonavir concentrations”.

As for `Cc1ccnc2c1NC(=O)c1cccnc1N2C1CC1` [Nevirapine], the “Potential for Clinically Significant Interaction” value in data set [1] is “Uncertain”.

Consider `Nc1ccn([C@H]2CC[C@@H](CO)O2)c(=O)n1` [ddC], for which, in data set [1], the “Potential for Clinically Significant Interaction” value was “Low”.

With `CC(C)(C)NC(=O)[C@@H]1CN(Cc2cccnc2)CCN1C[C@@H](O)C[C@@H](Cc1ccccc1)C(=O)N[C@H]1c2ccccc2C[C@H]1O` [Indinavir], in data set [1], the “Potential for Clinically Significant Interaction” value was “High (and unfavorable)”.
